Consider seven compounds from PMC4117768, “Conjugation with polyamines enhances the antibacterial and anticancer activity of chloramphenicol” (Nucleic Acids Research, 2014).

Like-named read-outs stand apart in the source and are kept apart here. Marks after values point to notes of the source that are not given here.

Experiment [1] concerns complex C (poly(U)-programmed ribosomes from E. coli bearing Ac[3H]Phe-tRNA at the P-site), peptidyl transferase. The experiment can be described thus: Inhibition of AcPhe-puromycin synthesis (puromycin reaction, peptide bond formation). Format: biochemical. Particulars: for Ki: 25°C, buffer A; for koff: isomerization C*I to CI, non linear regression fitting; for potency relative to CAM, based on Kik7/(k6 + k7): overall two-step inhibition of the puromycin reaction. The procedure:
Isolation of 70S ribosomes from E. coli K12 cells and preparation of Ac[^3H]Phe-tRNA^Phe charged to 80% were performed, as described previously ([23]). The post-translocation complex of poly(U)-programmed ribosomes (complex C), bearing tRNA^Phe at the E-site and Ac[^3H]Phe-tRNA at the P-site was prepared in buffer A (100 mM Tris-HCl pH 7.2, 6 mM (CH3COO)2Mg, 100 mM NH4Cl and 6 mM 2-mercaptoethanol). The percentage of active ribosomes in AcPhe-tRNA binding was 72%. This ribosomal population was more than 90% reactive toward puromycin.
The reaction between complex C and excess puromycin (S), a pseudo-substrate which binds to the ribosomal A-site, was performed at 25°C in buffer A and analyzed as described in detail elsewhere ([11]). Briefly, since the reaction followed first-order kinetics, the first-order rate constant kobs at each concentration of puromycin was determined by fitting the corrected x-values into Equation ([1]), (1) where x is the product Ac[^3H]Phe-puromycin expressed as the percentage of complex C radioactivity added in the reaction mixture and t the time of the reaction. kobs is related to the puromycin concentration, [S], by the relationship, (2) where kcat is the catalytic rate constant of PTase and KS the affinity constant of puromycin for complex C.
In the presence of CAM–polyamine conjugates, biphasic logarithmic time plots were obtained. The slope of the straight line through the origin was taken as the value of the apparent rate constant, kobs(early), at the early phase of the reaction, while the slope of the second straight line was taken as the value of the rate constant, kobs(late), at the late phase of the reaction.

Experiment [2] has as its system central loop of Domain V of 23S rRNA, E. coli ribosomes. The experiment can be described thus: Time-resolved footprinting of PA–CAM conjugates bound to ribosomes (DMS, kethoxal, CMCT probing, primer extension). Format: binding. The method, then:
Complexes RI and R*I were then probed at 37°C for 10 min with DMS, kethoxal or CMCT, as described previously ([30]). The modified sites in 23S rRNA were then analyzed by primer extension with reverse transcriptase, according to Moazed et al. ([30]). […] Extension products were run on 6% polyacrylamide/7M urea gels. Identification of the modified nucleotides, quantitative scanning of the gels and normalization of the band intensities were made as previously described ([4]). The values indicated in Table 2 denote the ratio between the normalized intensity of a band of interest and the normalized intensity of the corresponding band in the control lane (ribosomes non-treated with drugs).

In another experiment the test system is wild-type E. coli. Briefly: Growth inhibition of bacterial cell cultures. In kind it is cell-based. Particulars: for IC50: Escherichia coli, read-out: IC50 (inhibit the growth by half); for IC50/IC50(puro): wild-type E. coli, IC50(puro) = concentration causing 50% inhibition in peptide-bond formation at 2 mM puromycin. The method, then:
(§1) S. aureus or E. coli cells (400 μl of a 0.700 OD560 preculture) containing wild-type or mutant ribosomes were added in 3.6 ml of LB (Luria Broth) medium and grown at 37°C in the presence or absence of CAM or PA–CAM conjugates until the optical density of the control culture (grown in the absence of drug) reached the value 0.700 at 560 nm. From the growth curves, the IC50 value for each strain was estimated as the concentration of the drug that is required to inhibit the growth by half.

The subject of the next experiment is wild-type S. aureus. Briefly: Growth inhibition of bacterial cell cultures. Format: cell-based. The settings on record: Staphylococcus aureus, read-out: IC50 (inhibit the growth by half). The method, then: as §1
In experiment [3] the test system is E. coli (A2058G) TA531 cells with pKK35 plasmid, mutated 23S rRNA. Briefly: Growth inhibition of bacterial cell cultures, CAM-resistant mutant. In kind it is cell-based. The settings on record: Escherichia coli, read-out: IC50 (inhibit the growth by half).
Text: (§2) CAM free base [D-(-)threo-1-(p-nitrophenyl)-2-amino-1,3-propanediol], puromycin dihydrochloride, tRNA^Phe from E. coli, dimethyl sulfate (DMS), DMS stop solution and tRNA^Phe from E. coli were purchased from Sigma-Aldrich. Kethoxal and 1-cyclohexyl-3-(2-morpholinoethyl)-carbodiimide metho-p-toluene sulfate (CMCT) were from MP Biomedicals and Fluka Biochemicals, respectively. AMV reverse transcriptase was supplied by Roche, dNTPs by HT Biotechnology, and ddNTPs by Jena Bioscience. L-[2,3,4,5,6 -^3H]Phenylalanine was from Amersham Biosciences and [α-^32P]ATP from Izotop. Cellulose nitrate filters (type HA; 0.45 μm pore size) were from Millipore Corp. Details in experimental procedures of synthesis and physical and spectra data for the synthesized compounds will be published elsewhere. […] The mesothelioma cell line ZL34 and its immortalized counterpart cell line Met5A, were kindly provided by Prof. G. Stathopoulos (University of Patras).
as §1

Experiment [4] deals with E. coli (A2503C) TA531 cells with pKK35 plasmid, mutated 23S rRNA. The experiment is described as above. Format: cell-based. Particulars: Escherichia coli, read-out: IC50 (inhibit the growth by half).
Text: as §2, §1

The mark [5] stands for this setting: early phase of the reaction (encounter complex CI).
[6] abbreviates: late phase of the reaction (complex C*I).
[7] abbreviates: R*I binding state (3 min), conjugate at 50 × Ki, 25°C, ratio to control lane R.
[8] abbreviates: RI binding state (2 s), conjugate at 50 × Ki, 25°C, ratio to control lane R.

As to `NCCCCN(CCCN)C(=O)CCC(=O)N[C@H](CO)[C@H](O)c1ccc([N+](=O)[O-])cc1` [Compound 3], the figures for the Ki in experiment [1] (setting [5]) and in experiment [1] (setting [6]) were 3.6 ± 0.3 µM and 1.2 ± 0.1 µM, respectively. In addition, the koff (commonly the first-order rate constant of dissociation) in experiment [1] came out at 0.021 ± 0.00217 s⁻¹. The “potency relative to CAM, based on Kik7/(k6 + k7)” value (“potency relative to CAM, based” below) in experiment [1] is recorded as “lower potency”. The “protection of U2585 against CMCT (footprinting)” value in experiment [2] (2 s or 3 min incubation, Supplementary Figure S6) is listed as “fails to detect a similar protection”. Moreover, the IC50 (usually the concentration needed to halve the response being measured) with wild-type E. coli was above 150 µM; with wild-type S. aureus, 12.7 ± 1 µM; in experiment [3] it was above 150 µM; in experiment [4], above 150 µM. Moreover, the “IC50/IC50(puro)” value in the experiment with wild-type E. coli is given as above 20.8.

`O=C(N[C@H](CO)[C@H](O)c1ccc([N+](=O)[O-])cc1)c1nc[nH]n1` [Compound 8]: the values for the Ki in experiment [1] (setting [5]) and in experiment [1] (setting [6]) were 3 ± 0.3 µM and 1 ± 0.1 µM, respectively. Further, the koff in experiment [1] is 0.0183 ± 0.002 s⁻¹. The “potency relative to CAM, based” value in experiment [1] is reported as “equal”. Further, the IC50 in the experiment with wild-type E. coli was above 300 µM; with wild-type S. aureus, above 100 µM; in experiment [3] it was above 300 µM; in experiment [4], above 300 µM. For the same compound, the “IC50/IC50(puro)” value in the experiment with wild-type E. coli is given as above 50.

As to `NCCCNCCCCNCCCNC(=O)CCC(=O)N[C@H](CO)[C@H](O)c1ccc([N+](=O)[O-])cc1` [Compound 2], the inhibitory constant (Ki) (usually the dissociation constant of the complex between target and ligand, obtained from inhibition or displacement) in experiment [1] (setting [5]) was 2.2 ± 0.2 µM; in experiment [1] (setting [6]), 0.75 ± 0.06 µM. This compound showed a koff in experiment [1] of 0.0198 ± 0.00267 s⁻¹. The “potency relative to CAM, based” value in experiment [1] is listed as “equal”. In addition, the half-inhibitory concentration (IC50) with wild-type E. coli was above 100 µM; in the experiment with wild-type S. aureus, 45.3 ± 5.5 µM; in experiment [3], above 100 µM; in experiment [4], above 100 µM. The “IC50/IC50(puro)” value in the experiment with wild-type E. coli is given as above 22.2.

Take `NCCCCNC(=O)c1ccccc1C(=O)N[C@H](CO)[C@H](O)c1ccc([N+](=O)[O-])cc1` [Compound 6]: the results for the Ki in experiment [1] (setting [5]) and in experiment [1] (setting [6]) were 214 ± 17.1 µM and 8.45 ± 0.67 µM, respectively. This compound registered a koff in experiment [1] of 0.0125 ± 0.001 s⁻¹. In addition, the “potency relative to CAM, based” value in experiment [1] is “lower potency”. The IC50 (in the experiment with wild-type E. coli; with wild-type S. aureus; in experiment [3]; in experiment [4]) was above 200 µM throughout.

With `NCCCCNC(=O)CCC(=O)N[C@H](CO)[C@H](O)c1ccc([N+](=O)[O-])cc1` [Compound 1], the Ki came to 3.37 ± 0.3 µM in experiment [1] (setting [5]) and 0.9 ± 0.06 µM in experiment [1] (setting [6]). Besides, the koff in experiment [1] is 0.0175 ± 0.00167 s⁻¹. For the same compound, the “potency relative to CAM, based” value in experiment [1] is “equal”. Also, the IC50 (in the experiment on wild-type E. coli; with wild-type S. aureus; in experiment [3]; in experiment [4]) was above 200 µM in each case. In addition, in the experiment with wild-type E. coli, the “IC50/IC50(puro)” value is recorded as above 37.0.

Take `O=C(CCNC(=O)c1nc[nH]n1)N[C@H](CO)[C@H](O)c1ccc([N+](=O)[O-])cc1` [Compound 9]: the Ki in experiment [1] (setting [5]) was 12 ± 1.08 µM; in experiment [1] (setting [6]), 4 ± 0.44 µM. The same compound displayed a koff in experiment [1] of 0.014 ± 0.0013 s⁻¹. For the same compound, the “potency relative to CAM, based” value in experiment [1] is given as “lower potency”. The IC50 in the experiment with wild-type E. coli was above 200 µM; in the experiment with wild-type S. aureus, 66 ± 4.6 µM; in experiment [3], above 200 µM; in experiment [4] it was above 200 µM. Besides, the “IC50/IC50(puro)” value in the experiment with wild-type E. coli is above 8.3.

`O=C(CCC(=O)N[C@H](CO)[C@H](O)c1ccc([N+](=O)[O-])cc1)NCCCNCCCCN(Cc1ccccc1)Cc1ccccc1` [Compound 5] showed a Ki in experiment [1] (setting [5]) of 2.1 ± 0.17 µM. In experiment [1], the koff was found to be 0.0148 ± 0.0013 s⁻¹ and the “potency relative to CAM, based” value is on record as 1.5 fold. The affinity in experiment [1] (setting [6]) corresponds to a Ki of 0.6 ± 0.05 µM. Moreover, in experiment [2] (setting [7]), the “Relative reactivity of nucleoside A2058” value was 0.95 ± 0.08, the “Relative reactivity of nucleoside A2059” value is 1.00 ± 0.08, the “Relative reactivity of nucleoside A2062” value is 1.00 ± 0.09 and the “Relative reactivity of nucleoside A2451” value is 0.70 ± 0.05^b. For the same compound, in experiment [2] (setting [7]), the “Relative reactivity of nucleoside A2602” value stood at 0.89 ± 0.07, the “Relative reactivity of nucleoside G2505” value is listed as 0.50 ± 0.15^b,c, the “Relative reactivity of nucleoside U2506” value is 0.70 ± 0.06^b and the “Relative reactivity of nucleoside U2609” value amounted to 0.90 ± 0.08. Besides, in experiment [2] (setting [8]), the “Relative reactivity of nucleoside A2058” value amounted to 1.10 ± 0.09, the “Relative reactivity of nucleoside A2059” value worked out at 0.90 ± 0.08, the “Relative reactivity of nucleoside A2062” value came to 1.00 ± 0.06 and the “Relative reactivity of nucleoside A2451” value is listed as 0.65 ± 0.04^b. Also, in experiment [2] (setting [8]), the “Relative reactivity of nucleoside A2602” value worked out at 1.00 ± 0.06, the “Relative reactivity of nucleoside G2505” value is on record as 0.74 ± 0.06^b, the “Relative reactivity of nucleoside U2506” value is 0.75 ± 0.05^b and the “Relative reactivity of nucleoside U2585” value amounted to 0.92 ± 0.10. The “Relative reactivity of nucleoside U2609” value in experiment [2] (setting [8]) is 1.00 ± 0.10. Also, the IC50 with wild-type E. coli (WT-E. coli, LB medium, 37°C) was found to be 35.5 ± 3.6 µM. For the same compound, the “IC50/IC50(puro)” value in the experiment on wild-type E. coli came to 9.86 ± 1.29. For the same compound, the concentration for half-maximal inhibition (IC50) in the experiment on wild-type S. aureus was found to be 13.7 ± 1.2 µM. In addition, in experiment [3], the IC50 worked out at 32.3 ± 3 µM. Further, the IC50 in experiment [4] stood at 37.1 ± 3.1 µM.
